The test system of experiment [1] is mTORC2 (pAKT S473) in PC3 cells. The experiment is described as follows: mTOR target engagement assay, immunofluorescent cell-based, mTORC2 activity by reduction of pAKT S473. Particulars: Homo sapiens, PC-3, ninety minutes at 37° C., immunofluorescence. As to the method: (§1) The target engagement of mTOR kinase inhibitors was evaluated using an immunofluorescent cell-based assay. In this assay, inhibition of mTORC1 activity was measured by the reduction in the level of phosphorylated 4E-BP1Thr37/46 (p4E-BP1 Thr37/46), and inhibition of mTORC2 activity was measured by the reduction of phosphorylated AKTSer473 (pAKT S473).
(§2) PC3 cells (prostate tumor cell-line that contains a mutation in the tumor suppressor PTEN, that promotes the phosphorylation and activation of AKT and 4E-BP 1) were used in the immunofluorescence assay. PC3 cells were seeded on 384 well plates (black clear bottom, Matrix #4332) overnight. PC3 cells were then treated with 40 μl of the serially diluted test compounds (in 5% fetal bovine serum, F12 medium containing 0.25% DMSO) for ninety minutes at 37° C. The test compound solution was removed, and the plates were washed gently two times with 25 μl phosphate buffered saline (PBS). The cells were fixed by adding 25 μl of Prefer reagent (from Anatech LTD, Cat#414, a glyoxal fixative for fixing proteins within a cell) for sixty minutes followed by three washes with PBS. 5% Goat serum in PBS/0.3% Triton was used to block non-specific binding (60 minutes).
(§3) The primary antibodies targeting pAKT S473 and p4E-BP1 Thr37/46 were diluted into PBS/0.3% Triton and incubated with the cells overnight at 4° C. The antibodies targeting pAKTS473 (Cat#4085, Cell signaling) and p4E-BP1 Thr37/46 (Cat#2855, Cell signaling) were used at a 1:100 dilution. Plates were washed three times with PBS/0.1% Tween 20 before adding the secondary antibody at a 1:200 dilution. (goat anti-rabbit containing a fluorescent label, Alexa Fluor 488, Cat# A11008, Invitrogen) in PBS/0.3% Triton for 60 minutes.
(§4) Finally, the plates were washed three times with PBS/0.1% Tween 20 and the fluorescent intensity was read using an Analyst HT from Molecular Devices. The fluorescent intensity values from the serially diluted compound treatment group were analyzed using the Xlfit 4 program ([…]) (Formula 205: Y=Bottom+(Top-Bottom)/(1+(IC50/X)^Hillslope) to generate the IC50 value. Where Top is the maximum signal without Compound (+DMSO only) and Bottom represents maximum inhibition. Y is the fluorescence at some compound concentration. The control used to determine the fluorescent intensities for 100% pAKT S473 or 100% phosphorylated p4E-BP1 Thr37/46 were measured from untreated wells that contained only DMSO, instead of test compound.

Experiment [2] deals with mTORC1 (p4E-BP1 Thr37/46) in PC3 cells. The experiment is described as follows: mTOR target engagement assay, immunofluorescent cell-based, mTORC1 activity by reduction of p4E-BP1 Thr37/46. Particulars: Homo sapiens, PC-3, ninety minutes at 37° C., immunofluorescence. As to the method: as §1, §2, §3, §4

These results are taken from US8901142B2, “Fused tricyclic compounds as mTOR inhibitors” (Merck Sharp & Dohme Corp., priority 2011, dated 2014).

For orientation: IC50 means the concentration that gives 50% inhibition. High values mean weaker potency, low ones greater potency.

As to `O=C(CO)N1[C@@H]2CC[C@H]1C[C@H](c1nc3c(-c4ccc(-c5ncc[nH]5)nc4)cnn3c3[nH]ccc13)C2` [Example 5, 1-((1R,3s,5S)-3-(3-(6-(1H-imidazol-2-yl)pyridin-3-yl)-8H-pyrazolo[1,5-a]pyrrolo[3,2-e]pyrimidin-5-yl)-8-azabicyclo[3.2.1]octan-8-yl)-2-hydroxyethanone], the IC50 in experiment [1] fell in the range of 1 to 100 nM; in experiment [2], 100 to 1000 nM.

Consider `CC(C)(O)c1ccc(-c2cnn3c2nc([C@@H]2C[C@H]4CC[C@@H](C2)N4C(=O)CO)c2cc[nH]c23)cn1` [Example 4, 2-hydroxy-1-((1R,3s,5S)-3-(3-(6-(2-hydroxypropan-2-yl)pyridin-3-yl)-8H-pyrazolo[1,5-a]pyrrolo[3,2-e]pyrimidin-5-yl)-8-azabicyclo[3.2.1]octan-8-yl)ethanone], for which the IC50 in experiment [1] was in the range of 1000 to 2000 nM; in experiment [2], 100 to 1000 nM.

Regarding `CC(C)(O)c1ccc(-c2cnn3c2nc([C@@H]2C[C@H]4CC[C@@H](C2)N4C(=O)c2nnc[nH]2)c2cc[nH]c23)cn1` [Example 3, ((1R,3s,5S)-3-(3-(6-(2-hydroxypropan-2-yl)pyridin-3-yl)-8H-pyrazolo[1,5-a]pyrrolo[3,2-e]pyrimidin-5-yl)-8-azabicyclo[3.2.1]octan-8-yl)(1H-1,2,4-triazol-3-yl)methanone], the IC50 in experiment [1] and in experiment [2] was 100 to 1000 nM in each case.

Take `Cc1n[nH]c2c1c([C@@H]1C[C@H]3CC[C@@H](C1)N3C(=O)c1nnc[nH]1)nc1c(-c3ccc(-c4ccccc4)nc3)cnn12` [Example 1, ((1R,3s,5S)-3-(3-methyl-6-(6-phenylpyridin-3-yl)-1H-dipyrazolo[1,5-a:4′,3′-e]pyrimidin-4-yl)-8-azabicyclo[3.2.1]octan-8-yl)(4H-1,2,4-triazol-3-yl)methanone]: the IC50 in experiment [1] is 1 to 100 nM; in experiment [2], 100 to 1000 nM.

`O=C(c1nnc[nH]1)N1[C@@H]2CC[C@H]1C[C@H](c1nc3c(-c4ccc(-c5ncc[nH]5)nc4)cnn3c3[nH]ccc13)C2` [Example 6, ((1R,3s,5S)-3-(3-(6-(1H-imidazol-2-yl)pyridin-3-yl)-8H-pyrazolo[1,5-a]pyrrolo[3,2-e]pyrimidin-5-yl)-8-azabicyclo[3.2.1]octan-8-yl)(4H-1,2,4-triazol-3-yl)methanone]: the IC50 in experiment [1] and in experiment [2] was 1 to 100 nM each time.

Regarding `O=C(c1nnc[nH]1)N1[C@@H]2CC[C@H]1C[C@H](c1nc3c(-c4ccc(-c5ccccc5)nc4)cnn3c3[nH]ccc13)C2` [Example 2, ((1R,3s,5S)-3-(3-(6-phenylpyridin-3-yl)-8H-pyrazolo[1,5-a]pyrrolo[3,2-e]pyrimidin-5-yl)-8-azabicyclo[3.2.1]octan-8-yl)(4H-1,2,4-triazol-3-yl)methanone], the IC50 in experiment [1] and in experiment [2] was 1 to 100 nM each time.
